The supplement of paper PMC13380429
± gives the standard deviation of the averaged measurements.

Key:
Details in all cases: 72 h
Calu-3 [1] = assay: drug sensitivity score (DSS) for viability; higher = more toxic; extreme values may be limits of the assay
Vero E6 [2] = assay: as above
U2OS [3] = assay: as above
Caco-2 [4] = assay: as above
HepG2 [5] = assay: as above
Calu-3 [6] = assay: relative viability EC50 (midpoint between 100% and the lowest measured viability); higher = less toxic
Vero E6 [7] = assay: as above
U2OS [8] = assay: as above
Caco-2 [9] = assay: as above
HepG2 [10] = assay: as above
Calu-3 [11] = assay: cell viability relative to DMSO; higher = less toxic
Vero E6 [12] = assay: as above
U2OS [13] = assay: as above
Caco-2 [14] = assay: as above
HepG2 [15] = assay: as above

Structure (SMILES) | drug sensitivity score (Calu-3 [1]) | drug sensitivity score (Vero E6 [2]) | drug sensitivity score (U2OS [3]) | drug sensitivity score (Caco-2 [4]) | drug sensitivity score (HepG2 [5]) | relative viability EC50 (Calu-3 [6]) | relative viability EC50 (Vero E6 [7]) | relative viability EC50 (U2OS [8]) | relative viability EC50 (Caco-2 [9]) | relative viability EC50 (HepG2 [10]) | cell viability (Calu-3 [11]; 1 nM) | cell viability (Calu-3 [11]; 10 nM) | cell viability (Calu-3 [11]; 100 nM) | cell viability (Calu-3 [11]; 1000 nM) | cell viability (Calu-3 [11]; 10000 nM) | cell viability (Vero E6 [12]; 1 nM) | cell viability (Vero E6 [12]; 10 nM) | cell viability (Vero E6 [12]; 100 nM) | cell viability (Vero E6 [12]; 1000 nM) | cell viability (Vero E6 [12]; 10000 nM) | cell viability (U2OS [13]; 1 nM) | cell viability (U2OS [13]; 10 nM) | cell viability (U2OS [13]; 100 nM) | cell viability (U2OS [13]; 1000 nM) | cell viability (U2OS [13]; 10000 nM) | cell viability (Caco-2 [14]; 1 nM) | cell viability (Caco-2 [14]; 10 nM) | cell viability (Caco-2 [14]; 100 nM) | cell viability (Caco-2 [14]; 1000 nM) | cell viability (Caco-2 [14]; 10000 nM) | cell viability (HepG2 [15]; 1 nM) | cell viability (HepG2 [15]; 10 nM) | cell viability (HepG2 [15]; 100 nM) | cell viability (HepG2 [15]; 1000 nM) | cell viability (HepG2 [15]; 10000 nM)
O=C([O-])C(O)[C@H](O)[C@@H](O)[C@H](O)[C@H](O)CO.O=C([O-])C(O)[C@H](O)[C@@H](O)[C@H](O)[C@H](O)CO.[Ca+2] (stereo not given in full) [calcium-gluceptate] | 0 | 0 | 0 | 0 | 0 | > 10 µM | > 10 µM | > 10 µM | > 10 µM | > 10 µM | 138 ± 44% | 99 ± 6.2% | 101 ± 7.8% | 94.2 ± 20% | 97.4 ± 1.1% | 97.2 ± 7.6% | 85.1 ± 15% | 91.5 ± 2.7% | 82.3 ± 16% | 108.3 ± 0.49% | 98.9% | 89.9% | 101% | 95.3% | 106% | 95.7 ± 8% | 93.6 ± 0.71% | 92.9 ± 8.3% | 98.8 ± 2.1% | 103.5 ± 0.14% | 100 ± 12% | 95.1 ± 23% | 103 ± 6.7% | 100 ± 4% | 100 ± 8%
CCCCCOC(=O)Nc1nc(=O)n([C@@H]2O[C@H](C)[C@@H](O)[C@H]2O)cc1F [capecitabine] | 0 | 0 | 0 | 0 | 0 | > 10 µM | > 10 µM | > 10 µM | > 10 µM | > 10 µM | 99% | 110% | 91.8% | 98.6% | 101% | 102% | 101% | 99.7% | 95% | 95.6% | 96.7% | 103% | 94.3% | 92.6% | 101% | 107% | 110% | 103% | 96.1% | 106% | 97% | 104% | 104% | 99.9% | 96.3%
C=CC1=C(C(=O)O)N2C(=O)[C@@H](NC(=O)/C(=N\O)c3csc(N)n3)[C@H]2SC1 [cefdinir] | 0 | 0 | 0 | 0 | 0 | > 10 µM | > 10 µM | > 10 µM | > 10 µM | > 10 µM | 101% | 91.8% | 92.3% | 102% | 101% | 104% | 100% | 99.8% | 97.7% | 99.9% | 94% | 104% | 94.8% | 102% | 100% | 100% | 98.9% | 90.3% | 101% | 99.2% | 110% | 92.9% | 101% | 93.1% | 97.5%
CO/N=C(\C(=O)N[C@@H]1C(=O)N2C(C(=O)O)=CCS[C@H]12)c1csc(N)n1 [ceftizoxim] | 0 | 0 | 0 | 0 | 0 | > 10 µM | > 10 µM | > 10 µM | > 10 µM | > 10 µM | 97.2% | 93.6% | 103% | 105% | 93.4% | 102% | 99.2% | 95.2% | 95.6% | 105% | 97.7% | 99.2% | 94.5% | 98.8% | 98.7% | 89.5% | 100% | 92.1% | 103% | 95.7% | 97.5% | 96.1% | 107% | 103% | 103%
CC(C)(O)C(Cl)(Cl)Cl [chlorobutanol] | 0 | 0 | 0 | 0 | 0 | > 10 µM | > 10 µM | > 10 µM | > 10 µM | > 10 µM | 105% | 107% | 104% | 110% | 98.9% | 102% | 96.9% | 100% | 102% | 102% | 99.7% | 101% | 96.5% | 98.3% | 96.5% | 95% | 107% | 98.7% | 85.2% | 98.1% | 110% | 96.8% | 105% | 96.1% | 110%
C=C1CC[C@H](O)C/C1=C/C=C1\CCC[C@]2(C)[C@@H]([C@H](C)CCCC(C)C)CC[C@@H]12 [cholecalciferol] | 0 | 0 | 0 | 0 | 0 | > 10 µM | > 10 µM | > 10 µM | > 10 µM | > 10 µM | 100% | 102% | 96.5% | 108% | 95.5% | 92.1% | 85.5% | 102% | 93.8% | 120% | 94.6% | 103% | 96.4% | 100% | 99.4% | 95.6% | 88.2% | 101% | 103% | 144% | 90.3% | 82.4% | 92.8% | 93.4% | 84.6%
CCn1nc(C(=O)O)c(=O)c2cc3c(cc21)OCO3 [cinoxacin] | 0 | 0 | 0 | 0 | 0 | > 10 µM | > 10 µM | > 10 µM | > 10 µM | > 10 µM | 99.3% | 98.6% | 89.4% | 93.9% | 98.7% | 91.4% | 102% | 92.1% | 89.4% | 102% | 95.1% | 97.3% | 94.2% | 98.5% | 99.5% | 99.3% | 100% | 100% | 106% | 98.3% | 100% | 86.1% | 110% | 85.1% | 103%
Cn1c(CNc2ccc(C(=N)N)cc2)nc2cc(C(=O)N(CCC(=O)O)c3ccccn3)ccc21 [dabigatran] | 0 | 0 | 0 | 0 | 0 | > 10 µM | > 10 µM | > 10 µM | > 10 µM | > 10 µM | 114% | 99.6% | 90.1% | 93.7% | 92.8% | 96.9% | 96.4% | 99.1% | 101% | 99% | 104% | 99.3% | 101% | 97.1% | 98.1% | 109% | 97.1% | 101% | 94% | 95.5% | 103% | 95.8% | 104% | 97.8% | 91.7%
CC1(C)O[C@@H]2C[C@H]3[C@@H]4CCC5=CC(=O)C=C[C@]5(C)[C@H]4[C@@H](O)C[C@]3(C)[C@]2(C(=O)CO)O1 [desonide] | 0 | 0 | 0 | 0 | 0 | > 10 µM | > 10 µM | > 10 µM | > 10 µM | > 10 µM | 124% | 92.5% | 95% | 101% | 96.9% | 102% | 102% | 101% | 108% | 99.5% | 99.5% | 94.9% | 101% | 93.6% | 97.9% | 103% | 106% | 95% | 112% | 120% | 102% | 101% | 93.9% | 94.6% | 94.6%
O=c1[nH]cnc2c1ncn2[C@H]1CC[C@@H](CO)O1 [didanosine] | 0 | 0 | 0 | 0 | 0 | > 10 µM | > 10 µM | > 10 µM | > 10 µM | > 10 µM | 96.3% | 85% | 114% | 106% | 99.9% | 96% | 97.3% | 95.2% | 98% | 107% | 99.4% | 93.6% | 102% | 101% | 107% | 107% | 88.7% | 97.9% | 85.3% | 108% | 99.6% | 84.8% | 90.7% | 90.8% | 105%
O=c1[nH]c2ccccc2n1CCCN1CCC(n2c(=O)[nH]c3cc(Cl)ccc32)CC1 [domperidone] | 0 | 0 | 0 | 0 | 0 | > 10 µM | > 10 µM | > 10 µM | > 10 µM | > 10 µM | 102% | 94.6% | 105% | 106% | 101% | 90% | 93.8% | 95.8% | 96.6% | 89% | 103% | 90.7% | 97.6% | 95.6% | 94.2% | 100% | 96.1% | 96.7% | 92.1% | 94.3% | 94.6% | 96.4% | 92.3% | 104% | 95.7%
CN(C)CC/C=C1/c2ccccc2COc2ccccc21 [doxepin] | 0 | 0 | 0 | 0 | 0 | > 10 µM | > 10 µM | > 10 µM | > 10 µM | > 10 µM | 89% | 101% | 97.9% | 97.7% | 89.9% | 100% | 96.8% | 96.7% | 91.1% | 106% | 94.9% | 101% | 98.7% | 102% | 103% | 90.4% | 100% | 97.4% | 102% | 99.6% | 103% | 85.4% | 115% | 97.4% | 99.3%
